According to article PMC10535741, “Styrylpyridinium Derivatives for Fluorescent Cell Imaging” (Pharmaceuticals, 2023):

Tested on: B16-F10 (murine melanoma)
Assay: in vitro
Assay type: cell-based
Excerpt: For selected compounds, 6a–6f, we performed a determination of the cytotoxicity in a wider variety of cancer and non-cancerous cell lines (see Table S2, Supplementary Materials) in order to learn the characteristic features of selectivity or the similarity of biological properties.
The HT-1080 (human connective tissue fibrosarcoma, ATCC® CCL-121™), MH-22A (mouse hepatocarcinoma, ECACC Cat. No. 96121721), A-549 (human lung carcinoma, ATCC® CCL-185™), NIH3T3 (Swiss Albino mouse embryo fibroblast, ECACC Cat. No. 93061524), Hek293 (human embryonic kidney, ATCC® CRL-1573™), BHK-21 (Syrian hamster kidney, ATCC® CCL-10™), A-431 (human epidermoid carcinoma, ATCC® CRL-1555™), Saos-2 (human osteosarcoma, ATCC® HTB-85™), HeLa (human epitheloid cervix carcinoma, ATCC® CCL-2™), U937 (human myeloid leukaemia, ATCC® CRL-1593.2™), C6 (rat glioma, ATCC® CCL-107™), and B16-F10 (murine melanoma, ATCC® CRL-6475™) cell lines were obtained from the American Type Culture Collection (ATCC) and European Collection of Authenticated Cell Cultures (ECACC).
HT-1080, MH-22A, A-549, NIH3T3, BHK-21, A-431, HeLa, and B16-F10 cells were cultured in Dulbecco’s Modified Eagle’s Medium (DMEM) with 2 mM glutamine and 10% foetal bovine serum (FBS). Hek293 cells were cultured in Eagle’s Minimum Essential Medium with 10% foetal bovine serum. U937 cells were cultured in RPMI-1640 Medium with 2 mM glutamine and 10% foetal bovine serum. C6 cells were cultured in Ham’s F12 Medium with 2 mM glutamine and 10% foetal bovine serum. Saos-2 cells were cultured in McCoy’s 5a Medium with 2 mM glutamine and 10% foetal bovine serum. The cells were incubated at 37 °C with 5% CO2, 95% air, and complete humidity. Once ~90% confluence was reached, they were detached using 0.05% trypsin/EDTA and counted. The cells were plated at optimally determined densities for the logarithmic phase of growth. These cells were then suspended at a concentration of 4000 cells/well for HT-1080, MH-22A, A-549, NIH3T3, BHK-21, A-431, HeLa, B16-F10, Hek293, and Saos-2 cells and a concentration of 9000 cells/well for U937, C6, Hek293, and GM08402 cells and added onto a 96-well plate. For background absorption, some wells remained cell free, i.e., as a blank control. Cells were incubated for 72 h at 37 °C and 5% CO2 where they were exposed to a media containing serial dilutions of the investigated compounds (n = 3). Cell viability was measured using the 3-(4,5-dimethylthiazol-2-yl)-2,5-diphenyl-tetrazolium bromide (MTT) assay. In brief, after incubating with compounds, the culture medium was removed and fresh medium with 0.2 mg/mL MTT was added to each well of the plate. After incubation (3 h, 37 °C, 5% CO2), the medium with MTT solution was removed and replaced with 200 µL DMSO and 25 µL Sorenson’s glycine buffer (glycine 0.1 M, NaCl 0.1 M, pH: 10.5 with 0.1 M NaOH). The plate was shaken for 15 min at room temperature and the optical density (OD) of the wells was determined using a multichannel spectrophotometer (Thermo Scientific Multiskan EX) at 540 nm. The quantity of the control cells was taken in calculations as 100%. The IC50 value was calculated using the program Graph Pad Prism® 3.0. […]

CCCCCCCCCCCCCCCC[n+]1ccc(C=Cc2cc(OC)c(OC)c(OC)c2)cc1.[Br-] [Compound 6b]
Cytotoxicity IC50 B16-F10: 0.63 µg/mL
